Values of other authors, collected in patent US10174015B2, “Substituted heterocyclic derivative, preparation method and use thereof” (Xiamen University, priority 2014, dated 2019).

Assays:
[1] = system: leukocyte migration and inflammatory exudation; conditions: topical administration; cited from earlier work
NAAA = NAAA inhibitor, literature value; cited from earlier work

SMILES: O=C(CCc1ccccc1)N[C@H]1COC1=O [S-OOPP]
- effect on leukocyte migration and inflammatory exudation [1]: inhibiting leukocyte migration and inflammatory exudation
- IC50 (NAAA): 420 nM
